Experimental data taken from patent US20100048457A1, “GLYCOPROTEIN FOR TREATING CHRONIC OBSTRUCTIVE PULMONARY DISEASES” (Guangzhou Konzern Pharmacetuical Co. Ltd, priority 2007, published 2010).

Assays:
[1] = test system: ciliary movement in trachea mucous of rabbits; assay: Ciliary movement in trachea mucous; design: species or system rabbit; key to Ciliary movement: +++: All ciliary active in field of vision:; ++: ⅓~⅔ ciliary active in field of vision:; +: Less than ⅓ ciliary active in field of vision:; −−: All ciliary inactive in field of vision:; conditions: Ach, Dosage (g/L) 0.1
Description: The trachea mucous is exposed and washed by Ringer's solution (37° C.), then observe the sample by anatomical lens.
Add an ink into trachea mucous, the ink will move to one way (towards larynx), measure the velocity by micrometer and stopwatch, then calculate the moving velocity of mucus moving (second/2 mm).

[2] = test system: model animal with emphysema and pulmonary hypertension; assay: Experimental emphysema and pulmonary hypertension model; assay type: in vivo, golden hamster
Description: Preparation of model animal with emphysema and pulmonary hypertension: choose 75 from 90 male golden hamster randomly, 100-150 g each, to make model mouse. The model-building is performed on elected 75 animals under intraperitoneal anesthesia. Then open the mouse and exposure its throat, insert a pipe and inject the medicine fluid (60 U/100 g weight) into the body through the pipe, then shake the animal to let the medicine equality. Animals are wake in several hours, and feed normally. Other 15 golden hamster are acted as normal control group (Group A), the same volume of saline is injected in each trachea of each animal.
After perfusion of the medicine by gavage, animals are killed to measure the following:
Right Systolic Pressure (RSP): animals are cut in the neck to expose the right jugular vein, then insert the pipe into the right jugular vein to right ventricle, the pipe also connects the physiological monitor (RM-6300, Japan) for blood pressure measuring. The right carotic artery is also exposed and cannulated for blood pressure measuring.
Right Ventricle Hypertrophy Index (RVHI): kill the animal by bleeding, open the chest and bring the heart out, then cut the right ventricle down. Wash the heart by saline, absorb the water by filter paper, and then weight the right ventricle, and weight the total weight of the left ventricle and atrioventricular septalium. RVHI=weight of right ventricle/(total weight of left ventricle and atrioventricular septalium)
Pneumonic bronchoalveolar lavage fluid analyse: isobarical lavage machine is infused with Locke's solution, 37° C., the level of bottom is 60-100 cm higher than the T pipe. Kill the animal and open its chest, separate and cut down the trachea, and then bring out the trachea and the lung together, place in the Locke's solution, 37° C. Extrude the air out of the lung, and ligate the trachea with sleeve and connect with the T pipe. Open the T pipe to let Locke's solution flow into the lung, adjust the velocity of flow to about 25 ml/min. Concentrate the lavage 400 g by the centrifugal for 10 minutes, remove the supernatant, then add physiological saline into the deposit to make the cell suspend. Count the number of cells of bronchoalveolar lavage fluid ([…]) by inverted microscope, four times for one sample. Count the number of cells (/ml/g) of bronchoalveolar lavage fluid (BALF). Dye the smear of the suspend with HE, then count the ratio of macrophage in cell types.
Statistic treatment: data is expressed by x±s, and analyzed by one-way ANOVA, and compare with each group by Newman-Keuls method, P<0.05 meants distinct difference.

IL-4 = IL-4 in blood serum and BALF of asthmatic guinea pig (ELISA); assay type: in vivo; conditions: aminophylline group
Description: (§1) 11) IL-2, IL-4 assaying box for ELISA: provided by Shenzhen Jing Mei Co., Ltd.
(§2) The isobarical lavage machine is infused with Locke's solution, 37° C., the level of bottom is 60-100 cm higher than the T pipe. Guinea pigs are narcosis under intraperitoneal anesthesia by 1.5 ml 1% pentobarbital. Take 2 ml blood from cervical artery for detection of inflammatory factors. Kill the animal and open its chest, separate and cut down the trachea, and then bring out the trachea and the lung together, place in the Locke's solution, 37° C. Extrude the air out of the lung, and ligate the trachea with sleeve and connect with the T pipe. Open the T pipe to let Locke's solution flow into the lung, adjust the velocity of flow to about 25 ml/min. Take 5 ml lavage fluid for detection of inflammatory factors. When the velocity of flow is stable, animals are given 0.5% ovalbumin to stimulate the twitching of bronchia. After 30 minutes, observe and record the flux per minute, 6-10 minutes.

[3] = test system: isolated bronchitis in contractive state; assay: Lung overfall of isolated bronchitis in contractive state, before and after dosing; design: species or system guinea pig; conditions: aminophylline group
Description: as §2
After 6-minute stimulating, the lung overfall of isolated bronchitis becomes stable.

IL-2 = IL-2 in blood serum and BALF of asthmatic guinea pig (ELISA); assay type: in vivo; conditions: aminophylline group
Description: as §1, §2

[4] = test system: model mouse with chronic bronchitis; assay: Cough of chronic bronchitis (SO2 stimulation); assay type: in vivo; conditions: Dextromethorphan 15 mg/kg (positive control, also dexamethason 1.2 mg/kg)
Description: Preparation of model mouse with chronic bronchitis: choose 90 white mice, 20-25 g each, male or female Divide the mice randomly into six groups. In normal control group, no S02 stimulation is given, mice are feeding normally. In other groups, the following SO2 stimulation is given: place a utensil with 0.5 g anhydrous sodium sulfite in an 8 L bell cover, and place mice of each group into the bell cover, and add 50% vitriol 5 ml into the utensil, and take out the mice after 2 minutes; Once every day, 21 days.
During the dosing, observe the whole condition of animals in each group, and give the above SO2 stimulation to them in one hour after the last dosing. Record the delitescence of cough of each animal, and record the times of cough of each animal in 3 minutes.

[5] = test system: model mouse with acute bronchitis; assay: Cough of acute bronchitis (SO2 stimulation); assay type: in vivo; conditions: Dextromethorphan 15 mg/kg oral
Description: Preparation of model mouse with acute bronchitis: choose white mice, 20-25 g each, male or female. Pre-select method: place a utensil with 0.5 g anhydrous sodium sulfite in an 1 L beaker, add 50% vitriol 5 ml into the utensil, and place mice of each group into the beaker after 15 seconds, and take out the mice after 30 seconds. The mouse which starts cough in 3 minutes is an eligible mouse. Record the delitescence of cough of each animal, and record the times of cough of each animal. […] During the dosing, observe the whole condition of animals in each group, and give the above SO2 stimulation to them for 30 seconds in one hour after the last dosing. Record the delitescence of cough of each mouse, and record the times of cough of each animal in 3 minutes.

[6] = test system: α-hemolytic streptococcus; assay: Experimental treatment of infection by α-hemolytic streptococcus in vivo; conditions: Ofloxacin 500 mg/kg
Text: (§3) 2.10.1 select some bacterial related to acute pharyngitis, such as Staphyloccocus aureus Rosenbach, and α-hemolytic streptococcus, inject above bacterial into animals, such as mouse, by intraperitoneal dosing or subcutaneous injection, which will make certain animal death. Dosed before infecting the bacterial, and dosed after infecting the bacterial, the animals will be observed for eating, drinking, and movement.
(§4) Observe and record the eating, drinking, and movement in 4 days as the normal value. Besides of control group, animals in other groups are injected 0.5 ml Staphyloccocus aureus Rosenbach by intraperitoneal dosing or subcutaneous injection In the next day, animals are feed 5 days by gavage, twice every day. Observe the condition of eating, drinking, and movement, and mean growth rates, and then compare with control group.
The other methods are the same as the section 2.10.1.

[7] = test system: Staphyloccocus aureus Rosenbach; assay: Treatment of infection by Staphyloccocus aureus Rosenbach in vivo
Text: as §3, §4

[8] = test system: model rat with chronic bronchitis; assay: Treatment of pneumonia, histology of trachea and pneumonic tissue; assay type: in vivo, SD rat; conditions: positive group, dexamethason 1.2 mg/kg (FIG. 5), gavage 10 days
Description: Preparation of model rat with chronic bronchitis: choose 60 SD rats, 250-300 g each, male or female. Divide the rats randomly into six groups, one is normal control group, the other five groups are model groups which are modeling according to section 2.4.
During the dosing, observe the whole condition of animals in each group, and carry out the following procedures in ten days after the last dosing: The rats are narcosis under intraperitoneal anesthesia by 0.4 ml/100 g 10% chloral hydrate, and put on the operating table, open the neck and chest, bring out the trachea and pneumonic tissue, and then observe the condition of the sample. The sample is fixed by 10% formalin solution, and embedded by paraffin, and cut into slices, and dyed by HE. The inflammatory pathological changes are observed by microscope, including the integrality of epidermis, thickness of glands, infiltration of inflammatory cells in tracheal mucous, follicular lymph, and thickness of tracheal wall.

[9] = Ofloxacin 500 mg/kg, gavage twice every day

Q: What does the source list for `CC(=O)OCC[N+](C)(C)C.[Cl-]` [Ach, Acetylcholine chloride]?
A: Ciliary movement [1]: +++; Moving velocity ([1]; ink on trachea mucous): 5.36 ± 0.64 second/2 mm

Q: `Cn1c(=O)c2[nH]cnc2n(C)c1=O` [Aminophylline] was tested. Which MS ([2]; aminophylline positive control group) did it give?
A: 96.7 ± 9.6%

Q: What about the RVHI ([2]; aminophylline positive control group, gavage) of the same compound?
A: 28.62 ± 8.81%

Q: What about the BALF ([2]; cells in bronchoalveolar lavage fluid, aminophylline positive control group) of the same compound?
A: 364.8 ± 95.7 /mm^3

Q: And the “pathological changes of emphysema” value ([2]; comparing with the model group, aminophylline group)?
A: non-obviously improvement

Q: What about the “IL-4 in BALF” value (IL-4) of the same compound?
A: 26.81 ± 7.76 b pg/ml

Q: What about the IL-4 in serum (IL-4) of the same compound?
A: 1.78 ± 1.56 b pg/ml

Q: And the “amount of IL-4 in blood serum and BALF” value (IL-4; summary of table 9)?
A: decreases obviously

Q: What about the “lung overfall of isolated bronchitis in contractive state, After dosing” value [3] of the same compound?
A: 17.13 ± 3.08

Q: What about the “lung overfall of isolated bronchitis in contractive state, Before dosing” value ([3]; baseline before dosing) of the same compound?
A: 9.45 ± 1.86

Q: And the “lung overfall of isolated bronchitis in contractive state, After dosing” value ([3]; listed as aminophylline)?
A: increases obviously

Q: And the “IL-2 in BALF” value (IL-2)?
A: 0.13 ± 0.08 b pg/ml

Q: And the IL-2 in serum (IL-2)?
A: 1.45 ± 0.86 b pg/ml

Q: And the “amount of IL-2 in blood serum and BALF” value (IL-2; summary of table 9)?
A: decreases obviously

Q: `COc1ccc2c(c1)[C@]13CCCC[C@@H]1[C@H](C2)N(C)CC3` [Dextromethorphan] was tested. Which Delitescence ([4]; delitescence of cough) did it give?
A: 17.70 ± 4.521

Q: And the “Times of Cough” value ([4]; in 3 minutes)?
A: 77.60 ± 9.88

Q: What about the Delitescence ([5]; delitescence of cough) of the same compound?
A: 30.40 ± 9.91

Q: And the “Times of Cough” value ([5]; in 3 minutes)?
A: 35.20 ± 5.65

Q: Which “After infection, dringking, Day 1” value [6] does the source give for `CC1COc2c(N3CCN(C)CC3)c(F)cc3c(=O)c(C(=O)O)cn1c23` (centres unmarked) [Ofloxacin] here?
A: 2.3 mL

Q: What about the “After infection, dringking, Day 2” value [6] of the same compound?
A: 3.6 mL

Q: And the “After infection, dringking, Day 3” value [6]?
A: 3.8 mL

Q: What about the “After infection, dringking, Day 4” value [6] of the same compound?
A: 3.8 mL

Q: And the “After infection, dringking, Day 5” value [6]?
A: 4.2 mL

Q: And the “After infection, eating, Day 1” value [6]?
A: 2.1 g

Q: And the “After infection, eating, Day 2” value [6]?
A: 2.3 g

Q: What about the “After infection, eating, Day 3” value [6] of the same compound?
A: 2.9 g

Q: What about the “After infection, eating, Day 4” value [6] of the same compound?
A: 3.2 g

Q: And the “After infection, eating, Day 5” value [6]?
A: 4.5 g

Q: What about the “After infection, dringking, Day 1” value [7, 9] of the same compound?
A: 2.7 mL

Q: And the “After infection, dringking, Day 2” value [7, 9]?
A: 3.2 mL

Q: What about the “After infection, dringking, Day 3” value [7, 9] of the same compound?
A: 3.0 mL

Q: And the “After infection, dringking, Day 4” value [7, 9]?
A: 3.5 mL

Q: And the “After infection, dringking, Day 5” value [7, 9]?
A: 4.3 mL

Q: What about the “After infection, eating, Day 1” value [7, 9] of the same compound?
A: 1.9 g

Q: What about the “After infection, eating, Day 2” value [7, 9] of the same compound?
A: 2.5 g

Q: What about the “After infection, eating, Day 3” value [7, 9] of the same compound?
A: 3.2 g

Q: And the “After infection, eating, Day 4” value [7, 9]?
A: 3.6 g

Q: What about the “After infection, eating, Day 5” value [7, 9] of the same compound?
A: 3.9 g

Q: And the Survive ([7]; of 15 animals, Ofloxacin group)?
A: 15

Q: With `C[C@@H]1C[C@H]2[C@@H]3CCC4=CC(=O)C=C[C@]4(C)[C@@]3(F)[C@@H](O)C[C@]2(C)[C@@]1(O)C(=O)CO` [dexamethason] as the compound, how does the “inflammatory pathological changes of trachea and pneumonic tissue (microscope)” value [8] read?
A: obviously different from the model control group
